Measured values from patent US20230021483A1, “[…] […] METHOD AND CLASSIFICATION OF PHARMACEUTICAL COMPONENTS BY USING TRANSCRIPTOMES” (National Institutes of Biomedical Innovation, Health and …, priority 2016, published 2023).

Legend:
liver (LV) = assay: Whole organ transcriptome (GeneChip microarray) of liver 6 h after adjuvant administration: sDEGs, hierarchical clustering; format: in vivo, C57BL/6 mice; conditions: liver; for adjuvant group (cluster) in LV: key: G1 (interferon signaling); G2 (metabolism of lipids and lipoproteins); G3 (response to stress); G4 (response to wounding); G5 (phosphate-containing compound metabolic process); G6 (phagosome)
[1] = tested on: adjuvant-associated biological themes in LV, SP, LN
Procedure, shortened: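 Enrichment score S sums −log(p) over consensus themes whose names contain a pre-selected adjuvant-associated term such as "stress" or "cytokine". Consensus requires a theme in all three mice of a group, p<0.05. Themes come from TargetMine analysis of genes with eij/ei(c)>2.0, Fisher's exact test, Holm-Bonferroni-corrected.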

spleen (SP) = assay: Whole organ transcriptome (GeneChip microarray) of spleen 6 h after adjuvant administration: sDEGs, hierarchical clustering; format: in vivo, C57BL/6 mice; for adjuvant group (cluster) in SP: key: G1 (interferon signaling); G2 (metabolism of lipids and lipoproteins); G3 (response to stress); G4 (response to wounding); G5 (phosphate-containing compound metabolic process); G6 (phagosome)
[2] = i.d. administration, fold change <0.667, p<0.01, customized PA call=1, 6 h after adjuvant
[3] = i.d. administration, fold change >1.5, p<0.01, customized PA call=1, 6 h after adjuvant

With “heptanoyl-γ-D-glutamyl-(L)-meso-diaminopimelyl-(D)-alanine [FK565]” the “adjuvant group (cluster) in LV” value (liver (LV); hierarchical clustering) was “G3”, the “Number of gene probes with statistically significant changes (sDEGs), LV, Down” value (liver (LV); [2]) was 1972 and the “Number of gene probes with statistically significant changes (sDEGs), LV, Up” value (liver (LV); [3]) was 2094. For the same substance, the “IFN alpha, GO annotation line 1 of 5” value ([1]; LV, ID) was 4.54, the “IFN alpha, GO annotation line 2 of 5” value ([1]; LV, ID) was 0 and the “IFN alpha: cellular response to interferon-alpha” value ([1]; LV, ID) was 0. The “IFN alpha: positive regulation of interferon-alpha production” value ([1]; LV, ID) was 0, the “IFN alpha: regulation of interferon-alpha production” value ([1]; LV, ID) was 0 and the “IFN beta: cellular response to interferon-beta” value ([1]; LV, ID) was 9.65. The “IFN beta: interferon-beta production” value ([1]; LV, ID) was 0, the “IFN beta: positive regulation of interferon-beta production” value ([1]; LV, ID) was 0 and the “IFN beta: regulation of interferon-beta production” value ([1]; LV, ID) was 0. For the same substance, the “IFN beta: response to interferon-beta” value ([1]; LV, ID) was 17.3, the “IFN gamma: cellular response to interferon-gamma” value ([1]; LV, ID) was 0 and the “IFN gamma: interferon-gamma production” value ([1]; LV, ID) was 0. The “IFN gamma: regulation of interferon-gamma production” value ([1]; LV, ID) was 0, the “IFN gamma: response to interferon-gamma” value ([1]; LV, ID) was 11 and the “NF-kappa B signaling pathway, GO annotation line 1 of 4” value ([1]; LV, ID) was 19.8. The “NF-kappa B signaling pathway, GO annotation line 3 of 4” value ([1]; LV, ID) was 3.05, the “NF-kappa B signaling pathway, GO annotation line 4 of 4” value ([1]; LV, ID) was 5.82 and the TNF signaling pathway ([1]; LV, ID) was 30.9. For the same substance, the “adaptive immune response, GO annotation line 1 of 5” value ([1]; LV, ID) was 8.99, the “adaptive immune response, GO annotation line 2 of 5” value ([1]; LV, ID) was 8.71 and the “adaptive immune response, GO annotation line 3 of 5” value ([1]; LV, ID) was 3.56. The “adaptive immune response, GO annotation line 4 of 5” value ([1]; LV, ID) was 0, the “adaptive immune response, GO annotation line 5 of 5” value ([1]; LV, ID) was 0 and the “apoptosis, GO annotation line 1 of 8” value ([1]; LV, ID) was 15.2. For the same substance, the “apoptosis, GO annotation line 2 of 8” value ([1]; LV, ID) was 13, the “apoptosis, GO annotation line 3 of 8” value ([1]; LV, ID) was 19.9 and the “apoptosis, GO annotation line 4 of 8” value ([1]; LV, ID) was 13.9. The “apoptosis, GO annotation line 5 of 8” value ([1]; LV, ID) was 6.58, the “apoptosis, GO annotation line 6 of 8” value ([1]; LV, ID) was 13.2 and the “apoptosis, GO annotation line 7 of 8” value ([1]; LV, ID) was 0. The “apoptosis, GO annotation line 8 of 8” value ([1]; LV, ID) was 8.33, the “cell death, GO annotation line 1 of 9” value ([1]; LV, ID) was 21.7 and the “cell death, GO annotation line 2 of 9” value ([1]; LV, ID) was 16.4. For the same substance, the “cell death, GO annotation line 3 of 9” value ([1]; LV, ID) was 15.7, the “cell death, GO annotation line 4 of 9” value ([1]; LV, ID) was 14 and the “cell death, GO annotation line 5 of 9” value ([1]; LV, ID) was 12.9. The “cell death, GO annotation line 6 of 9” value ([1]; LV, ID) was 7.1, the “cell death, GO annotation line 7 of 9” value ([1]; LV, ID) was 7.29 and the “cell death, GO annotation line 8 of 9” value ([1]; LV, ID) was 0. The “cell death, GO annotation line 9 of 9” value ([1]; LV, ID) was 0, the “chemokine, GO annotation line 1 of 4” value ([1]; LV, ID) was 0 and the “chemokine, GO annotation line 2 of 4” value ([1]; LV, ID) was 0. For the same substance, the “chemokine, GO annotation line 3 of 4” value ([1]; LV, ID) was 0, the “chemokine, GO annotation line 4 of 4” value ([1]; LV, ID) was 0 and the “chemotaxis, GO annotation line 1 of 11” value ([1]; LV, ID) was 16.1. For the same substance, the “chemotaxis, GO annotation line 2 of 11” value ([1]; LV, ID) was 0, the “chemotaxis, GO annotation line 4 of 11” value ([1]; LV, ID) was 5.48 and the “chemotaxis, GO annotation line 5 of 11” value ([1]; LV, ID) was 0. The “chemotaxis, GO annotation line 6 of 11” value ([1]; LV, ID) was 5.83, the “chemotaxis, GO annotation line 7 of 11” value ([1]; LV, ID) was 6.49 and the “chemotaxis, GO annotation line 8 of 11” value ([1]; LV, ID) was 0. The “chemotaxis, GO annotation line 9 of 11” value ([1]; LV, ID) was 0, the “chemotaxis, GO annotation line 10 of 11” value ([1]; LV, ID) was 0 and the “chemotaxis, GO annotation line 11 of 11” value ([1]; LV, ID) was 0. The “cytokine, GO annotation line 1 of 17” value ([1]; LV, ID) was 37.8, the “cytokine, GO annotation line 2 of 17” value ([1]; LV, ID) was 32.6 and the “cytokine, GO annotation line 3 of 17” value ([1]; LV, ID) was 23.6. For the same substance, the “cytokine, GO annotation line 4 of 17” value ([1]; LV, ID) was 17.1, the “cytokine, GO annotation line 5 of 17” value ([1]; LV, ID) was 30.2 and the “cytokine, GO annotation line 6 of 17” value ([1]; LV, ID) was 27.5. The “cytokine, GO annotation line 7 of 17” value ([1]; LV, ID) was 8.69, the “cytokine, GO annotation line 8 of 17” value ([1]; LV, ID) was 16.2 and the “cytokine, GO annotation line 9 of 17” value ([1]; LV, ID) was 17. The “cytokine, GO annotation line 10 of 17” value ([1]; LV, ID) was 18.6, the “cytokine, GO annotation line 11 of 17” value ([1]; LV, ID) was 3.46 and the “cytokine, GO annotation line 12 of 17” value ([1]; LV, ID) was 14. The “cytokine, GO annotation line 13 of 17” value ([1]; LV, ID) was 7.57, the “cytokine, GO annotation line 14 of 17” value ([1]; LV, ID) was 7.13 and the “cytokine, GO annotation line 15 of 17” value ([1]; LV, ID) was 10.1. For the same substance, the “cytokine, GO annotation line 16 of 17” value ([1]; LV, ID) was 0, the “cytokine, GO annotation line 17 of 17” value ([1]; LV, ID) was 0 and the “defense response, GO annotation line 1 of 11” value ([1]; LV, ID) was 57.8. The “defense response, GO annotation line 2 of 11” value ([1]; LV, ID) was 29.6, the “defense response, GO annotation line 3 of 11” value ([1]; LV, ID) was 24.9 and the “defense response, GO annotation line 4 of 11” value ([1]; LV, ID) was 18.4. The “defense response, GO annotation line 5 of 11” value ([1]; LV, ID) was 5.98, the “defense response, GO annotation line 6 of 11” value ([1]; LV, ID) was 6.22 and the “defense response, GO annotation line 7 of 11” value ([1]; LV, ID) was 0. For the same substance, the “defense response, GO annotation line 8 of 11” value ([1]; LV, ID) was 0, the “defense response, GO annotation line 9 of 11” value ([1]; LV, ID) was 0 and the “defense response, GO annotation line 10 of 11” value ([1]; LV, ID) was 0. The “defense response, GO annotation line 11 of 11” value ([1]; LV, ID) was 0, the “immune response, GO annotation line 1 of 8” value ([1]; LV, ID) was 46.1 and the “immune response, GO annotation line 2 of 8” value ([1]; LV, ID) was 20.8. The “immune response, GO annotation line 3 of 8” value ([1]; LV, ID) was 19.5, the “immune response, GO annotation line 4 of 8” value ([1]; LV, ID) was 11.9 and the “immune response, GO annotation line 5 of 8” value ([1]; LV, ID) was 9.97. For the same substance, the “immune response, GO annotation line 6 of 8” value ([1]; LV, ID) was 12.1, the “immune response, GO annotation line 7 of 8” value ([1]; LV, ID) was 0 and the “immune response, GO annotation line 8 of 8” value ([1]; LV, ID) was 0. For the same substance, the “inflammatory response, GO annotation line 1 of 5” value ([1]; LV, ID) was 29.8, the “inflammatory response, GO annotation line 2 of 5” value ([1]; LV, ID) was 11.4 and the “inflammatory response, GO annotation line 3 of 5” value ([1]; LV, ID) was 3.69. The “inflammatory response, GO annotation line 4 of 5” value ([1]; LV, ID) was 0, the “inflammatory response, GO annotation line 5 of 5” value ([1]; LV, ID) was 0 and the “innate immune response, GO annotation line 1 of 6” value ([1]; LV, ID) was 33.7. The “innate immune response, GO annotation line 2 of 6” value ([1]; LV, ID) was 19.7, the “innate immune response, GO annotation line 3 of 6” value ([1]; LV, ID) was 16.7 and the “innate immune response, GO annotation line 4 of 6” value ([1]; LV, ID) was 16.2. For the same substance, the “innate immune response, GO annotation line 5 of 6” value ([1]; LV, ID) was 14.3, the “innate immune response, GO annotation line 6 of 6” value ([1]; LV, ID) was 0 and the “interleukin-6: interleukin-6 production” value ([1]; LV, ID) was 3.6. The “interleukin-6: positive regulation of interleukin-6 production” value ([1]; LV, ID) was 0, the “interleukin-6: regulation of interleukin-6 production” value ([1]; LV, ID) was 4.17 and the “interleukin-12: interleukin-12 production” value ([1]; LV, ID) was 8.76. For the same substance, the “interleukin-12: positive regulation of interleukin-12 production” value ([1]; LV, ID) was 3.24, the “interleukin-12: regulation of interleukin-12 production” value ([1]; LV, ID) was 9.49 and the “migration, GO annotation line 1 of 10” value ([1]; LV, ID) was 13.6. For the same substance, the “migration, GO annotation line 2 of 10” value ([1]; LV, ID) was 8.98, the “migration, GO annotation line 3 of 10” value ([1]; LV, ID) was 14.2 and the “migration, GO annotation line 4 of 10” value ([1]; LV, ID) was 7.86. The “migration, GO annotation line 5 of 10” value ([1]; LV, ID) was 7.57, the “migration, GO annotation line 6 of 10” value ([1]; LV, ID) was 6.55 and the “migration, GO annotation line 7 of 10” value ([1]; LV, ID) was 6.19. For the same substance, the “migration, GO annotation line 8 of 10” value ([1]; LV, ID) was 4.49, the “migration, GO annotation line 9 of 10” value ([1]; LV, ID) was 0 and the “migration, GO annotation line 10 of 10” value ([1]; LV, ID) was 0. For the same substance, the “stress, GO annotation line 1 of 3” value ([1]; LV, ID) was 57.7, the “stress, GO annotation line 2 of 3” value ([1]; LV, ID) was 28.5 and the “stress, GO annotation line 3 of 3” value ([1]; LV, ID) was 9.02. For the same substance, the “wounding, GO annotation line 1 of 3” value ([1]; LV, ID) was 12.1, the “wounding, GO annotation line 2 of 3” value ([1]; LV, ID) was 12.8 and the “wounding, GO annotation line 3 of 3” value ([1]; LV, ID) was 9.45. The “NF-kappa B signaling pathway, GO annotation line 2 of 4” value ([1]; mouse, in vivo) was 12.9, the “chemotaxis, GO annotation line 3 of 11” value ([1]; mouse, in vivo) was 15.7 and the “adjuvant group (cluster) in SP” value (spleen (SP); hierarchical clustering) was “G3”. For the same substance, the “Number of gene probes with statistically significant changes (sDEGs), SP, Down” value (spleen (SP); [2]) was 624 and the “Number of gene probes with statistically significant changes (sDEGs), SP, Up” value (spleen (SP); [3]) was 1672.
